Consider 18 compounds from patent US8431593B2, “Heteroaryl amide derivatives” (H. Lundbeck A/S, priority 2006, dated 2013).

pIC50: −log10 of the molar value.

In the assay the target is T1, P2X7 receptor (Homo sapiens, UniProt Q99572).
T1 construct: host or cells: SH-SY5Y
T1 sequence (Q99572 1-595): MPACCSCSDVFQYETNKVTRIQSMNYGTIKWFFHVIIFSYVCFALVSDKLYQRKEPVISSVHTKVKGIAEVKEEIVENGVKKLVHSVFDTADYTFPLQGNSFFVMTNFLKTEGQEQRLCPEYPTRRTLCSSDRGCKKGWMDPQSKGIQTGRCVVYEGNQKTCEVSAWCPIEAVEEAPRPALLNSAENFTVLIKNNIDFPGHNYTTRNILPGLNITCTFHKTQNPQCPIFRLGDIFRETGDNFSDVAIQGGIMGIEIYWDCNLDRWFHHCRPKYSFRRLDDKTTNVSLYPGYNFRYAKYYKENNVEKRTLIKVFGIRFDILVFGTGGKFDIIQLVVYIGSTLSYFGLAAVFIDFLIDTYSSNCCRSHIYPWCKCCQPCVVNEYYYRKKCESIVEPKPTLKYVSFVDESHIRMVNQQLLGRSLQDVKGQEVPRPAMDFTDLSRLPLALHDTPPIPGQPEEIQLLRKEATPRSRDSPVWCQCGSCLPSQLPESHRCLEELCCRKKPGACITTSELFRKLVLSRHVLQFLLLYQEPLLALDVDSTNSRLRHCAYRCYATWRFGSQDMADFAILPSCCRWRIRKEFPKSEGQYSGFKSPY
As to the kind of experiment: P2X7 calcium mobilization assay, high throughput, antagonist activity (Example 4A). Format: cell-based. Conditions: 50% decrease in the fluorescence response of cells exposed to 80 μM 2′(3′)-O-(4-benzoyl-benzoyl)adenosine 5′-triphosphate; Example 4A; read-out: IC50. The gist of the method: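 100,000 cells/well, plated day -1. Dye 1 h → rinse → compound 1 h, RT → FLIPR^TETRA Ca2+ mobilization. Max RFU minus mean negative control (no agonist); mean agonist-well max as positive control.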
For orientation: A change in cytosolic calcium serves as a functional read-out for many receptors and channels.
As for `COCCN(C(=O)Cc1cn2c(C(=O)NC[C@@H]3CC[C@@H]4C[C@H]3C4(C)C)cccc2n1)C1CCNCC1` [Compound 567, N-{[(1R,2R,5R)-6,6-dimethylbicyclo[3.1.1]hept-2-yl]methyl}-2-{2-[(2-methoxyethyl) (piperidin-4-yl)amino]-2-oxoethyl} imidazo[1,2-a]pyridine-5-carboxamide], the negative-log IC50 (pIC50) was above 5.70. In the case of `CNC1CCN(C(=O)Cc2cn3c(C(=O)NC[C@@H]4CC[C@@H]5C[C@H]4C5(C)C)cccc3n2)C1` (stereo partly drawn) [Compound 568, N-{[(1R,2R,5R)-6,6-dimethylbicyclo[3.1.1]hept-2-yl]methyl}-2-{2-[3-(methylamino)pyrrolidin-1-yl]-2-oxoethyl}imidazo[1,2-a]pyridine-5-carboxamide] it was above 5.70; in that of `CC(C)[C@H]1CNCCN1C(=O)Cc1cn2c(C(=O)NC[C@@H]3CC[C@@H]4C[C@H]3C4(C)C)cccc2n1` [Compound 569, N-{[(1R,2R,5R)-6,6-dimethylbicyclo[3.1.1]hept-2-yl]methyl}-2-{2-[(2S)-2-isopropylpiperazin-1-yl]-2-oxoethyl}imidazo[1,2-a]pyridine-5-carboxamide], above 5.70. `CC(C)[C@@H]1CNCCN1C(=O)Cc1cn2c(C(=O)NC[C@@H]3CC[C@@H]4C[C@H]3C4(C)C)cccc2n1` [Compound 570, N-{[(1R,2R,5R)-6,6-dimethylbicyclo[3.1.1]hept-2-yl]methyl}-2-{2-[(2R)-2-isopropylpiperazin-1-yl]-2-oxoethyl}imidazo[1,2-a]pyridine-5-carboxamide]: the pIC50 is above 5.70.

In the case of `CC(C)[C@@H]1CN(C(=O)Cc2cn3c(C(=O)NC[C@@H]4CC[C@@H]5C[C@H]4C5(C)C)cccc3n2)CCN1` [Compound 571, N-{[(1R,2R,5R)-6,6-dimethylbicyclo[3.1.1]hept-2-yl]methyl}-2-{2-[(3R)-3-isopropylpiperazin-1-yl]-2-oxoethyl}imidazo[1,2-a]pyridine-5-carboxamide], the negative logarithm of the IC50 (pIC50) is above 5.70. In the case of `COCCCN(C(=O)Cc1cn2c(C(=O)NC[C@@H]3CC[C@@H]4C[C@H]3C4(C)C)cccc2n1)C1CCNCC1(C)C` (stereo partly drawn) [Compound 572, N-{[(1R,2R,5R)-6,6-dimethylbicyclo[3.1.1]hept-2-yl]methyl}-2-{2-[(3,3-dimethylpiperidin-4-yl)(3-methoxy-propyl)amino]-2-oxoethyl} imidazo[1,2-a] pyridine-5-carboxamide] it was above 5.70; in that of `COCCN(C(=O)Cc1cn2c(C(=O)NC[C@@H]3CC[C@@H]4C[C@H]3C4(C)C)cccc2n1)C1CCNCC1(C)C` (stereo partly drawn) [Compound 573, N-{[(1R,2R,5R)-6,6-dimethylbicyclo[3.1.1]hept-2-yl]methyl}-2-{2-[(3,3-dimethyl-piperidin-4-yl)(2-methoxyethyl)amino]-2-oxoethyl}imidazo [1,2-a]pyridine-5-carboxamide], above 5.70; in that of `CN(C)CCN(C(=O)Cc1cn2c(C(=O)NC[C@@H]3CC[C@@H]4C[C@H]3C4(C)C)cccc2n1)C1CCNCC1(C)C` (stereo partly drawn) [Compound 574, 2-(2-{[2-(dimethylamino)ethyl] (3,3-dimethylpiperidin-4-yl)amino}-2-oxoethyl)-N-{[(1R,2R,5R)-6,6-dimethylbicyclo [3.1.1]hept-2-yl]methyl}imidazo[1,2-a]pyridine-5-carboxamide], above 5.70.

As to `CC1(C)[C@@H]2CC[C@@H](CNC(=O)c3cccc4nc(CC(=O)N5CCCC(CN)C5)cn34)[C@H]1C2` (stereo partly drawn) [Compound 578, 2-{2-[3-(aminomethyl)piperidin-1-yl]-2-oxoethyl}-N-{[(1R,2R,5R)-6,6-dimethylbicyclo[3.1.1]hept-2-yl]methyl}imidazo[1,2-a]pyridine-5-carboxamide], the pIC50 was above 5.70.

As to `CC1(C)[C@@H]2CC[C@@H](CNC(=O)c3cccc4nc(CC(=O)N5CCCCC5CN)cn34)[C@H]1C2` (stereo partly drawn) [Compound 579, 2-{2-[2-(aminomethyl)piperidin-1-yl]-2-oxoethyl}-N-{[(1R,2R,5R)-6,6-dimethylbicyclo[3.1.1]hept-2-yl]methyl}imidazo[1,2-a]pyridine-5-carboxamide], the pIC50 is above 5.70. With `CC1(C)[C@@H]2CC[C@@H](CNC(=O)c3cccc4nc(CC(=O)N5CCCC5CN)cn34)[C@H]1C2` (stereo partly drawn) [Compound 580, 2-{2-[2-(aminomethyl)pyrrolidin-1-yl]-2-oxoethyl}-N-{[(1R,2R,5R)-6,6-dimethylbicyclo[3.1.1]hept-2-yl]methyl}imidazo[1,2-a]pyridine-5-carboxamide] the figure was above 5.70. With `CC1(C)[C@@H]2CC[C@@H](CNC(=O)c3cccc4nc(CC(=O)N5CCCC(N)C5)cn34)[C@H]1C2` (stereo partly drawn) [Compound 581, 2-[2-(3-aminopiperidin-1-yl)-2-oxoethyl]-N-{[(1R,2R,5R)-6,6-dimethylbicyclo[3.1.1]hept-2-yl]methyl}imidazo[1,2-a]pyridine-5-carboxamide], the pIC50 is above 5.70. On to `CC1(C)[C@@H]2CC[C@@H](CNC(=O)c3cccc4nc(CC(=O)N5CCC[C@@H]5CN)cn34)[C@H]1C2` [Compound 584, 2-{2-[(2R)-2-(aminomethyl)pyrrolidin-1-yl]-2-oxoethyl}-N-{[(1R,2R,5R)-6,6-dimethylbicyclo [3.1.1]hept-2-yl]methyl}imidazo [1,2-a]pyridine-5-carboxamide], for which the pIC50 was above 5.70. Take `CC1(C)[C@@H]2CC[C@@H](CNC(=O)c3cccc4nc(CC(=O)N5CCC[C@H]5CN)cn34)[C@H]1C2` [Compound 587, 2-{2-[(2S)-2-(aminomethyl)pyrrolidin-1-yl]-2-oxoethyl}-N-{[(1R,2R,5R)-6,6-dimethylbicyclo [3.1.1]hept-2-yl]methyl}imidazo[1,2-a]pyridine-5-carboxamide]: the pIC50 is above 5.70. In the case of `CC1(C)[C@@H]2CC[C@@H](CNC(=O)c3cccc4nc(CC(=O)N5CC[C@@H](N)C5)cn34)[C@H]1C2` [Compound 588, 2-{2-[(3R)-3-aminopyrrolidin-1-yl]-2-oxoethyl}-N-{[(1R,2R,5R)-6,6-dimethylbicyclo[3.1.1]hept-2-yl]methyl}imidazo [1,2-a]pyridine-5-carboxamide] it was above 5.70; in that of `CC1(C)[C@@H]2CC[C@@H](CNC(=O)c3cccc4nc(CC(=O)NCC5CCNCC5)cn34)[C@H]1C2` [Compound 589, N-{[(1R,2R,5R)-6,6-dimethylbicyclo[3.1.1]hept-2-yl]methyl}-2-{2-oxo-2-[(piperidin-4-ylmethyl)amino]ethyl} imidazo[1,2-a]pyridine-5-carboxamide], above 5.70; in that of `CC1(C)[C@@H]2CC[C@@H](CNC(=O)c3cccc4nc(CC(=O)NCC5CCCN5)cn34)[C@H]1C2` (stereo partly drawn) [Compound 590, N-{[(1R,2R,5R)-6,6-dimethylbicyclo[3.1.1]hept-2-yl]methyl}-2-{2-oxo-2-[(pyrrolidin-2-ylmethyl)amino]ethyl} imidazo[1,2-a]pyridine-5-carboxamide], above 5.70. In the case of `CC1(C)[C@@H]2CC[C@@H](CNC(=O)c3cccc4nc(CC(=O)NC5CCNC5)cn34)[C@H]1C2` (stereo partly drawn) [Compound 591, N-{[(1R,2R,5R)-6,6-dimethylbicyclo[3.1.1]hept-2-yl]methyl}-2-[2-oxo-2-(pyrrolidin-3-ylamino)ethyl]imidazo [1,2-a]pyridine-5-carboxamide] it was above 5.70.

As a reminder, the pIC50 is the negative decadic logarithm of the IC50, by convention in mol/L.
